Patent publication US11866720B2, “Transgenic or non-transgenic plants with mutated protoporphyrinogen oxidase having increased tolerance to herbicides” (priority 2013, dated 2024)
Positions count from the first letter of the chain named. Where “and” joins values, the source holds several entries; their conditions need not be identical. Identical values can stand only once.

Tests used:
Assay in all cases: biochemical
Conditions in all cases: IC50 (M)
[1] = biological target: recombinant wildtype and mutated PPO (Amaranthus PPO2: PPX2L_WC SEQ ID NO 2, PPX2L_AC SEQ ID NO 4, dG210 SEQ ID NO 6 & 8) (Amaranthus tuberculatus, UniProt Q0NZW9, D133A/F420M/R128C)
[2] = biological target: T1, recombinant wildtype and mutated PPO (Amaranthus PPO2: PPX2L_WC SEQ ID NO 2, PPX2L_AC SEQ ID NO 4, dG210 SEQ ID NO 6 & 8) (Amaranthus tuberculatus, UniProt Q0NZW9, D133A/F420V/R128I)
T1 sequence (Q0NZW9 1-534 R128I/D133A/F420V): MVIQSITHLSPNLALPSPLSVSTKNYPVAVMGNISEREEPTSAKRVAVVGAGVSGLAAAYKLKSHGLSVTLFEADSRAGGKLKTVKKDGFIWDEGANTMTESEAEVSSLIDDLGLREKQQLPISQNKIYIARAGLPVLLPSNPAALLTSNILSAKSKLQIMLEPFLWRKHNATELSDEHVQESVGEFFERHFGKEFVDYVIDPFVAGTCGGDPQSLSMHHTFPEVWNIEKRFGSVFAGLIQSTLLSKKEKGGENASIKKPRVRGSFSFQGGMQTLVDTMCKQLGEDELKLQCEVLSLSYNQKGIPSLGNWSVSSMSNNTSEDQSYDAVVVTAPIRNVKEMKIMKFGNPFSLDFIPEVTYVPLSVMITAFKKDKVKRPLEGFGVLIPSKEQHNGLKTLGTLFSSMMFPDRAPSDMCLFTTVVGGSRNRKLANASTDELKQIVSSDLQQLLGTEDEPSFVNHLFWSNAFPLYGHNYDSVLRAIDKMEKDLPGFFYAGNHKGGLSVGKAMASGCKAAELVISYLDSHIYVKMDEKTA

[3] = biological target: T2, recombinant wildtype and mutated PPO (Amaranthus PPO2: PPX2L_WC SEQ ID NO 2, PPX2L_AC SEQ ID NO 4, dG210 SEQ ID NO 6 & 8) (Amaranthus tuberculatus, UniProt Q0NZW9, D133A/F420M/R128N)
T2 sequence (Q0NZW9 1-534 R128N/D133A/F420M): T1 sequence (Q0NZW9 1-534 R128I/D133A/F420V) with I128N, V420M

[4] = biological target: recombinant wildtype and mutated PPO (Amaranthus PPO2: PPX2L_WC SEQ ID NO 2, PPX2L_AC SEQ ID NO 4, dG210 SEQ ID NO 6 & 8) (Amaranthus tuberculatus, UniProt Q0NZW9, D133A/F420M/R128H)
[5] = biological target: T3, recombinant wildtype and mutated PPO (Amaranthus PPO2: PPX2L_WC SEQ ID NO 2, PPX2L_AC SEQ ID NO 4, dG210 SEQ ID NO 6 & 8) (Amaranthus tuberculatus, UniProt Q0NZW9, D133A/F420L/R128I)
T3 sequence (Q0NZW9 1-534 R128I/D133A/F420L): T1 sequence (Q0NZW9 1-534 R128I/D133A/F420V) with V420L

[6] = biological target: recombinant wildtype and mutated PPO (Amaranthus PPO2: PPX2L_WC SEQ ID NO 2, PPX2L_AC SEQ ID NO 4, dG210 SEQ ID NO 6 & 8) (Amaranthus tuberculatus, UniProt Q0NZW9, D133A/F420M/R128M)
Sequence of recombinant wildtype and mutated PPO (Amaranthus PPO2: PPX2L_WC SEQ ID NO 2, PPX2L_AC SEQ ID NO 4, dG210 SEQ ID NO 6 & 8) (Amaranthus tuberculatus, UniProt Q0NZW9, D133A/F420M/R128M) (Q0NZW9 1-534 R128M/D133A/F420M): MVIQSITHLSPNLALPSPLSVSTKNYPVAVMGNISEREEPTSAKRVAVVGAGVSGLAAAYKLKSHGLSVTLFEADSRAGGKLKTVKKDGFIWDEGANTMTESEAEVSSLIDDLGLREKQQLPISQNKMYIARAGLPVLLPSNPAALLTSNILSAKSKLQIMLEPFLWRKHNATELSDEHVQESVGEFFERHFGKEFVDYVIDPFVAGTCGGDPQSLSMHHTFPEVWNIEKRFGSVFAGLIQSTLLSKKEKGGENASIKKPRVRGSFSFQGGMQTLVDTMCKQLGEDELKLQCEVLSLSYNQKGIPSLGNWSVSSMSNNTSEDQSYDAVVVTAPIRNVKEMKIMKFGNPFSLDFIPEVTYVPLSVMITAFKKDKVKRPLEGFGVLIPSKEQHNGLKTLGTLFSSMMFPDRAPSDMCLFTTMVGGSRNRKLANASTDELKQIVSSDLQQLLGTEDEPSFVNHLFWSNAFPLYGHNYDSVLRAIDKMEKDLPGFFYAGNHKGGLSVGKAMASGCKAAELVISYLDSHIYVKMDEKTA

Sequence of recombinant wildtype and mutated PPO (Amaranthus PPO2: PPX2L_WC SEQ ID NO 2, PPX2L_AC SEQ ID NO 4, dG210 SEQ ID NO 6 & 8) (Amaranthus tuberculatus, UniProt Q0NZW9, D133A/F420M/R128C) (Q0NZW9 1-534 R128C/D133A/F420M): as the sequence (Q0NZW9 1-534 R128M/D133A/F420M) above, with M128C counted along it
Sequence of recombinant wildtype and mutated PPO (Amaranthus PPO2: PPX2L_WC SEQ ID NO 2, PPX2L_AC SEQ ID NO 4, dG210 SEQ ID NO 6 & 8) (Amaranthus tuberculatus, UniProt Q0NZW9, D133A/F420M/R128H) (Q0NZW9 1-534 R128H/D133A/F420M): as the sequence (Q0NZW9 1-534 R128M/D133A/F420M) above, with M128H counted along it

`C#CCN1C(=O)C(F)(F)Oc2cc(F)c(N3C(=O)C4=C(CCCC4)C3=O)cc21` was tested, and the IC50 [1] was 3.57e-06 M, the IC50 [2] was 4.32e-06 M and the IC50 [3] was at least 1e-05 M. For the same compound, the IC50 [4] was 3.07e-06 M, the IC50 [5] was at least 1e-05 M and the IC50 [6] was at least 1e-05 M.
`COC(Oc1ccccc1Oc1cc(-n2c(=O)cc(C(F)(F)F)n(C)c2=O)c(F)cc1Cl)C(=O)OC1CCCCC1` (stereo not drawn) showed an IC50 [1] of 2.98e-08 M, an IC50 [2] of 3.78e-08 M and an IC50 [3] of 1.48e-07 M. It also gave an IC50 [4] of 2.97e-07 M, an IC50 [5] of 1.07e-07 M and an IC50 [6] of 3.22e-08 M.
For `C#CCN1C(=O)C(F)(F)Oc2cc(F)c(-n3c(=O)cc(C(F)(F)F)n(C)c3=O)cc21`, the IC50 [1] was 1.11e-08 M, the IC50 [2] was 9.01e-08 M and the IC50 [3] was 5.94e-08 M. The IC50 [4] was 1.05e-08 M, the IC50 [5] was 2.69e-07 M and the IC50 [6] was 4.94e-08 M.
In the case of `C#CCN1C(=O)COc2cc(F)c(N3C(=O)C4=C(CCCC4)C3=O)cc21` [Flumioxazin, flumioxazin], the IC50 [1] is reported as at least 1e-05 M, the IC50 [2] is reported as at least 1e-05 M and the IC50 [3] is reported as 6.15e-06 M. The IC50 [4] was at least 1e-05 M, the IC50 [5] was at least 1e-05 M and the IC50 [6] was at least 1e-05 M.
For `CS(=O)(=O)NC(=O)c1cc(Oc2ccc(C(F)(F)F)cc2Cl)ccc1[N+](=O)[O-]` [Fomesafen, fomesafen], the IC50 [1] was 1.1e-05 M, the IC50 [2] was 2.79e-06 M and the IC50 [3] was 1.07e-05 M. It also gave an IC50 [4] of 2.91e-06 M, an IC50 [5] of at least 1e-05 M and an IC50 [6] of at least 1e-05 M.
In the case of `O=C(O)c1cc(Oc2ccc(C(F)(F)F)cc2Cl)ccc1[N+](=O)[O-]` [ACIFLUORFEN], the IC50 [1] is reported as at least 1e-05 M, the IC50 [2] is reported as 1.21e-05 M and the IC50 [3] is reported as at least 1e-05 M. For the same compound, the IC50 [4] was at least 1e-05 M, the IC50 [5] was at least 1e-05 M and the IC50 [6] was at least 1e-05 M.
Work on `CCOC(=O)COc1ncccc1Oc1cc(-n2c(=O)cc(C(F)(F)F)n(C)c2=O)c(F)cc1Cl` [A.13, ethyl [3-[2-chloro-4-fluoro-5-(1-methyl-6-trifluoromethyl-2,4-dioxo-1,2,3,4-tetrahydropyrimidin-3-yl)phenoxy]-2-pyridyloxy]acetate] yielded an IC50 [1] of 6.95e-08 M, an IC50 [2] of 4.38e-08 M and an IC50 [3] of 1.92e-07 M. It also gave an IC50 [4] of 4.18e-08 M, an IC50 [5] of 2.01e-07 M and an IC50 [6] of 4.83e-08 M.
`CCOc1cc(Oc2ccc(C(F)(F)F)cc2Cl)ccc1[N+](=O)[O-]` [OXIFLUORFEN] showed an IC50 [1] of 4.16e-07 M, an IC50 [2] of 1.98e-07 M and an IC50 [3] of 3.91e-07 M. It also gave an IC50 [4] of 3.68e-07 M, an IC50 [5] of 4.21e-06 M and an IC50 [6] of 7.36e-07 M.
`COC(=O)C(OC)Oc1ccccc1Oc1cc(-n2c(=O)cc(C(F)(F)F)n(C)c2=O)c(F)cc1Cl` (stereo not drawn) gave an IC50 [1] of 1.16e-08 M, an IC50 [2] of 1.71e-08 M and an IC50 [3] of 1.2e-07 M. The IC50 [4] was 1.76e-08 M, the IC50 [5] was 7.13e-08 M and the IC50 [6] was 1.62e-08 M.
Work on `CCOC(=O)C(Cl)Cc1cc(-n2nc(C)n(C(F)F)c2=O)c(F)cc1Cl` (stereo not drawn) [CARFENTRAZONE-ETHYL] yielded an IC50 [1] of 2.99e-08 M, an IC50 [2] of 2.07e-07 M and an IC50 [3] of 1.88e-07 M. For the same compound, the IC50 [4] was 1.21e-07 M, the IC50 [5] was 1.61e-07 M and the IC50 [6] was 7.86e-08 M.
Work on `CCOC(=O)C(C)OC(=O)c1cc(Oc2ccc(C(F)(F)F)cc2Cl)ccc1[N+](=O)[O-]` (stereo not drawn) [Lactofen, lactofen] yielded an IC50 [1] of 6.39e-08 M, an IC50 [2] of 1.4e-08 M and an IC50 [3] of 1.67e-07 M. It also gave an IC50 [4] of 6.13e-08 M, an IC50 [5] of 1.3e-07 M and an IC50 [6] of 1.31e-07 M.
With `C#CCN1C(=O)C(F)(F)Oc2cc(F)c(-n3c(=O)n(C)c(=S)n(C)c3=O)cc21` the IC50 [1] was 2.53e-08 M and 2.33e-08 M, the IC50 [2] was 2.14e-07 M and 3.15e-07 M and the IC50 [3] was 7.12e-08 M and 4.97e-08 M. The IC50 [4] was 2.64e-08 M and 2.13e-08 M, the IC50 [5] was 4.05e-07 M and 2.45e-07 M and the IC50 [6] was 7.69e-08 M and 7.07e-08 M and 4.84e-08 M.
In the case of `C=CCOC(=O)C(C)(C)OC(=O)c1cc(-n2c(=O)cc(C(F)(F)F)n(C)c2=O)ccc1Cl` [BUTAFENACIL], the IC50 [1] is reported as 2.31e-08 M, the IC50 [2] is reported as 2.56e-08 M and the IC50 [3] is reported as 2.84e-08 M. It also gave an IC50 [4] of 1.28e-08 M, an IC50 [5] of 8.02e-08 M and an IC50 [6] of 4.38e-08 M.
